According to ChEMBL document CHEMBL4007403, “Identification of Triazolothiadiazoles as Potent Inhibitors of the dCTP Pyrophosphatase 1” (J Med Chem, 2017):
pIC50: −log10 of the molar value. Values after ≈ are worked out from the molar mass of the structure shown.

How the values were obtained:
[1] = Stability of the compound in DMSO measured after several months by HPLC-MS analysis; assay type: physicochemical
[2] = Stability of the compound in biochemical assay buffer under basic mobile phase conditions by HPLC-MS analysis; assay type: physicochemical
dCTP pyrophosphatase 1 = biological target: T1, dCTP pyrophosphatase 1 (Homo sapiens, UniProt Q9H773); assay: Inhibition of recombinant human N-terminal His-tagged dCTPase 1 expressed in Escherichia coli BL21(DE3)pLysS using dCTP as substrate after 1 hr by malachite green reagent based assay
T1 sequence (Q9H773 whole entry): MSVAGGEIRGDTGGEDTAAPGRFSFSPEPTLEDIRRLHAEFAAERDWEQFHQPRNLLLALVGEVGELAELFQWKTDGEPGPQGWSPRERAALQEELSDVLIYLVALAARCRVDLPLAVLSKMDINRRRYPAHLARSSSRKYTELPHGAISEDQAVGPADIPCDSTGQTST

[3] = Stability of the compound in biochemical assay buffer under mildly acidic mobile phase conditions by HPLC-MS analysis; assay type: physicochemical
[4] = Half life in mouse liver microsomes up to 100 uM preincubated for 10 mins followed by NADPH addition by UPLC-MS analysis; assay type: ADME, microsome
[5] = Hepatic extraction ratio in mouse liver microsomes up to 100 uM preincubated for 10 mins followed by NADPH addition by UPLC-MS analysis; assay type: ADME, microsome; conditions: read-out: ERH
[6] = Hepatic extraction ratio in human liver microsomes up to 100 uM preincubated for 10 mins followed by NADPH addition by UPLC-MS analysis; assay type: ADME, microsome; conditions: read-out: ERH
[7] = Kinetic solubility of the compound; assay type: physicochemical; conditions: read-out: Kinetic_solubility
[8] = Half life in human liver microsomes up to 100 uM preincubated for 10 mins followed by NADPH addition by UPLC-MS analysis; assay type: ADME, microsome

| SMILES | Stability [1] | Stability [2] | pIC50 (dCTP pyrophosphatase 1) | Stability [3] | half-life [4] [min] | hepatic extraction ratio [5] | hepatic extraction ratio [6] | solubility kinetic [7] [µM] | half-life [8] [min] |
| --- | --- | --- | --- | --- | --- | --- | --- | --- | --- |
| CCCc1nnc2sc(-c3ccc(OC)cc3)nn12 | Stable | Stable | 5.16 | Stable |  |  |  |  |  |
| COc1cccc(-c2nn3c(-c4ccncc4)nnc3s2)c1 | Stable | Stable | < 5.00 | Stable |  |  |  |  |  |
| c1coc(-c2nnc3sc(-c4cccs4)nn23)c1 | Stable | Stable | 6.15 | Stable |  |  |  |  |  |
| CCCc1nnc2sc(-c3cccc(OC)c3)nn12 | Stable | Stable | 5.13 | Stable |  |  |  |  |  |
| Cc1cccc(-c2nn3c(-c4ccccn4)nnc3s2)c1 | Stable | Stable | 6.35 | Stable |  |  |  |  |  |
| Ic1ccccc1-c1nn2c(-c3ccccn3)nnc2s1 | Stable | Stable | 6.30 | Stable |  |  |  |  |  |
| Clc1ccc(-c2nn3c(-c4ccccn4)nnc3s2)c(Cl)c1 | Stable | Stable | 6.38 | Stable |  |  |  |  |  |
| Cc1ccccc1-c1nn2c(-c3ccccn3)nnc2s1 | Stable | Stable | 6.13 to 6.30 | Stable |  |  |  |  |  |
| COc1ccccc1-c1nn2c(-c3ccccn3)nnc2s1 | Stable | Stable | 5.99 | Stable |  |  |  |  |  |
| c1ccc(CCCCc2nn3c(-c4ccccn4)nnc3s2)cc1 | Stable | Stable | 5.86 | Stable |  |  |  |  |  |
| CCOc1ccc(-c2nn3c(-c4ccccn4)nnc3s2)cc1OCC | Stable | Stable | 5.93 | Stable |  |  |  |  |  |
| Cc1onc(-c2cccs2)c1-c1nn2c(-c3ccco3)nnc2s1 | Stable | Stable | 5.99 | Stable |  |  |  |  |  |
| COc1cccc(-c2nn3c(-c4ccccn4)nnc3s2)c1 | Stable | Stable | 5.73 | Stable |  |  |  |  |  |
| Fc1ccccc1-c1nn2c(-c3ccccn3)nnc2s1 | Stable | Stable | 6.17 | Stable |  |  |  |  |  |
| Cc1ccccc1-c1nn2c(-c3cnccn3)nnc2s1 | Stable | Stable | 6.16 | Stable |  |  |  |  |  |
| c1ccc(-c2nn3c(-c4ccco4)nnc3s2)cc1 | Stable | Stable | 6.23 | Stable |  |  |  |  |  |
| Cc1ccc(-c2nn3c(-c4ccccn4)nnc3s2)cc1 | Stable | Stable | 6.33 | Stable |  |  |  |  |  |
| Clc1ccccc1-c1nn2c(-c3ccccn3)nnc2s1 | Stable | Stable | 6.36 | Stable |  |  |  |  |  |
| C(=C\c1cccnc1)/Cc1nn2c(-c3ccco3)nnc2s1 | Stable | Stable | 6.34 | Stable |  |  |  |  |  |
| C=CCOc1ccc(-c2nn3c(-c4ccccn4)nnc3s2)cc1 | Stable | Stable | 5.92 | Stable |  |  |  |  |  |
| C(=C\c1cccnc1)/Cc1nn2c(-c3ccccc3)nnc2s1 | Stable | Stable | 6.25 | Stable |  |  |  |  |  |
| CCc1cc(-c2nnc3sc(-c4ccccc4)nn23)n(C)n1 | Stable | Stable | < 5.00 | Stable |  |  |  |  |  |
| COc1cccc(-c2nnc3sc(-c4ccncc4)nn23)c1 | Stable | Stable | 5.99 | Stable |  |  |  |  |  |
| CCCCc1nnc2sc(-c3cccc(OC)c3)nn12 | Stable | Stable | 5.69 | Stable |  |  |  |  |  |
| CCOc1ccc(-c2nn3c(-c4ccccn4)nnc3s2)cc1 | Stable | Stable | 6.35 | Stable |  |  |  |  |  |
| Brc1cccc(-c2nn3c(-c4ccccn4)nnc3s2)c1 | Stable | Stable | 6.22 | Stable |  |  |  |  |  |
| c1ccc(-c2nn3c(-c4ccccn4)nnc3s2)cc1 | Stable | Stable | 6.21 | Stable |  |  |  |  |  |
| CCCCc1nnc2sc(-c3cc(C)nc4ccccc34)nn12 | Stable | Stable | 5.25 | Stable |  |  |  |  |  |
| COc1ccc(-c2nn3c(-c4cccnc4)nnc3s2)cc1 | Stable | Stable | 5.58 | Stable |  |  |  |  |  |

More lines, now with the values ahead:

| Stability [1] | Stability [2] | pIC50 (dCTP pyrophosphatase 1) | Stability [3] | half-life [4] [min] | hepatic extraction ratio [5] | hepatic extraction ratio [6] | solubility kinetic [7] [µM] | half-life [8] [min] | SMILES |
| --- | --- | --- | --- | --- | --- | --- | --- | --- | --- |
| Stable | Stable | 6.66 | Stable |  |  |  |  |  | Clc1ccc(/C=C/Cc2nn3c(-c4ccccn4)nnc3s2)cc1 |
| Stable | Stable | 6.45 | Stable |  |  |  |  |  | Fc1cccc(-c2nn3c(-c4ccccn4)nnc3s2)c1 |
| Stable | Stable | 6.69 | Stable |  |  |  |  |  | Clc1ccc(-c2nn3c(-c4ccccn4)nnc3s2)cc1 |
| Stable | Stable | 6.50 to 6.55 | Stable |  |  |  |  |  | COc1ccc(-c2nn3c(-c4ccccn4)nnc3s2)cc1 |
| Stable | Stable | 6.57 | Stable |  |  |  |  |  | Clc1cccc(-c2nn3c(-c4ccccn4)nnc3s2)c1 |
| Stable | Stable | 6.48 | Stable |  |  |  |  |  | Fc1ccc(-c2nn3c(-c4ccccn4)nnc3s2)cc1 |
| Stable | Stable | 6.75 | Stable |  |  |  |  |  | c1coc(-c2nnc3sc(-c4ccc5ccccc5n4)nn23)c1 |
| Stable | Stable | 6.56 | Stable |  |  |  |  |  | CN(C)c1cccc(-c2nn3c(-c4ccccn4)nnc3s2)c1 |
| Stable | Stable | 6.40 | Stable |  |  |  |  |  | c1ccc(-c2nnc3sc(-c4cc5ccccc5o4)nn23)nc1 |
| Stable | Stable | 6.84 | Stable |  |  |  |  |  | c1coc(-c2nnc3sc(-c4csc5c4CCCC5)nn23)c1 |
| Stable | Stable | 6.50 | Stable |  |  |  |  |  | Cc1cc(-c2nn3c(-c4ccccn4)nnc3s2)c2ccccc2n1 |
| Stable | Stable | 6.48 | Stable |  |  |  |  |  | Brc1ccccc1-c1nn2c(-c3ccccn3)nnc2s1 |
| Stable | Stable | 6.56 | Stable |  |  |  |  |  | COc1cc(OC)cc(-c2nn3c(-c4ccccn4)nnc3s2)c1 |
| Stable | Stable | 6.79 | Stable |  |  |  |  |  | Brc1ccc(-c2nn3c(-c4ccccn4)nnc3s2)cc1 |
| Stable | Stable | 6.69 | Stable |  |  |  |  |  | c1ccc(-c2nnc3sc(-c4cccc5ccccc45)nn23)nc1 |
| Stable | Stable | 7.02 | Stable |  |  |  |  |  | c1ccc(-c2nnc3sc(-c4ccc5ccccc5c4)nn23)nc1 |
| Stable | Stable | 6.77 | Stable | 1 | 0.99 | 0.89 | 30 (≈ 8.59 µg/mL) | 6 | c1csc(-c2nnc3sc(-c4cnccn4)nn23)c1 |
| Stable | Stable | 6.54 | Stable |  |  |  |  |  | CN(C)c1ccc(-c2nn3c(-c4ccccn4)nnc3s2)cc1 |
| Stable | Stable | 6.68 | Stable |  |  |  |  |  | COc1ccc(-c2nn3c(-c4ccccc4F)nnc3s2)cc1 |
| Stable | Stable | 6.63 | Stable |  |  |  |  |  | c1ccc(-c2nnc3sc(-c4cccnc4)nn23)nc1 |
| Stable | Stable | 6.46 | Stable |  |  |  |  |  | CCc1noc(C)c1-c1nn2c(-c3cccs3)nnc2s1 |
| Stable | Stable | 6.64 | Stable |  |  |  |  |  | Cc1ccc(-c2nn3c(-c4ccccn4)nnc3s2)cc1C |
| Stable | Stable | 6.39 | Stable |  |  |  |  |  | Fc1ccccc1-c1nnc2sc(-c3ccccc3)nn12 |
